Test system: L-cells
Format: cell-based, murine
Settings: spontaneous lysis and cell recovery in presence of peptide alone (data not shown)
Text: Identification of the immunodominant epitope recognized by the line Pol a: To identify the epitope(s) contained in this area, we used 21 overlapping 15-amino acid peptides designated HP134 to HP154 covering residues 168 to 316. […] HP138 ([…]) corresponds to residues 205-219 of the HTLV/IIIB strain sequence (32). […] The line Pol a was Class I MHC-restricted because it killed HP 138-pulsed, Class II MHC molecule-negative H-2^k L-cell fibroblasts, but not 3T3 fibroblasts (H-2^d) or EL4 thymoma cells (H-2^b).

`CC[C@H](C)[C@H](NC(=O)[C@H](CCCCN)NC(=O)[C@H](CO)NC(=O)[C@@H](NC(=O)[C@H](CCCCN)NC(=O)CNC(=O)[C@H](CCC(=O)O)NC(=O)[C@H](CCCCN)NC(=O)[C@H](CCC(=O)O)NC(=O)[C@H](CCSC)NC(=O)[C@H](CCC(=O)O)NC(=O)[C@@H](NC(=O)[C@@H](N)CS)[C@@H](C)O)[C@@H](C)CC)C(=O)NCC(=O)N1CCC[C@H]1C(=O)O` [HP138] was tested, and the “toxicity of the peptide by itself” value was “not toxic by itself”.

Source: patent US5336758A, “Peptides stimulating cytotoxic T cells immune to HIV RT” (The United States of America as represented by the …, priority 1990, dated 1994)
